The nature of data set [1]: DSC of thermal behaviour of nanoparticles. The data set is classed as physicochemical.
The nature of data set [2]: Curcumin release in simulated gastric fluid (SGF). The format is physicochemical. As to conditions: pH 2.0, pepsin, 37℃, 100 rpm, sampling to 90 min.

Consider `COc1cc(/C=C/C(=O)CC(=O)/C=C/c2ccc(O)c(OC)c2)ccc1O` [Cur, 姜黄素], for which the “characteristic decomposition peak of curcumin” value in data set [1] was 179.2 °C. In data set [2], the curcumin release rate is reported as 60.5%.
